{"source": "patent US20200197472A1", "about": "“COSMETIC COMPOSITIONS” (Mary Kay Inc., priority 2018, published 2020)", "assay_type_in_all_cases": "cell-based", "key": {"[1]": {"system": "procollagen peptide", "test": "Collagen stimulation: procollagen peptide production by human epidermal fibroblasts (ELISA)", "details": "for Collagen Production, Activity compared to control: human fibroblasts treated 3 days", "from_the_text": "Collagen is an extracellular matrix protein critical for skin structure. Increased synthesis of collagen helps improve skin firmness and elasticity. This bioassay was used to examine the effect of Alpinia galangal leaf extract, dihydroxymethyl chromone, tripeptide-1, Alteromonas ferment filtrate, Pisum Sativum (pea) extract, and/or TAUT on the production of procollagen peptide (a precursor to collagen) by human epidermal fibroblasts. The endpoint of this assay was a spectrophotometric measurement that reflects the presence of procollagen peptide and cellular viability. The assay employed the quantitative sandwich enzyme immunoassay technique whereby a monoclonal antibody specific for procollagen peptide had been pre-coated onto a microplate. Standards and samples were pipetted into the wells and any procollagen peptide present was bound by the immobilized antibody. After washing away any unbound substances, an enzyme-linked polyclonal antibody specific for procollagen peptide was added to the wells. Following a wash to remove any unbound antibody-enzyme reagent, a substrate solution was added to the wells and color develops in proportion to the amount of procollagen peptide bound in the initial step using a microplate reader for detection at 450 nm. The color development was stopped and the intensity of the color was measured.\nFor generation of samples and controls, subconfluent normal human adult epidermal fibroblasts (Cascade Biologics) cultivated in standard DMEM growth medium with 10% fetal bovine serum (Mediatech) at 37° C. in 10% CO2, were treated with each of the ingredients for 3 days. Following incubation, cell culture medium was collected and the amount of procollagen peptide secretion quantified using a sandwich enzyme linked immuno-sorbant assay (ELISA) from Takara (# MK101)."}, "[2]": {"system": "fibronectin", "test": "Fibronectin secretion by cultured human fibroblasts (ELISA)", "details": "3 days, 1.0% final concentration", "from_the_text": "Laminin and fibronectin are major proteins in the dermal-epidermal junction (DEJ) (also referred to as the basement membrane). The DEJ is located between the dermis and the epidermis interlocks forming fingerlike projections called rete ridges. The cells of the epidermis receive their nutrients from the blood vessels in the dermis. The rete ridges increase the surface area of the epidermis that is exposed to these blood vessels and the needed nutrients. The DEJ provides adhesion of the two tissue compartments and governs the structural integrity of the skin. Laminin and fibronectin are two structural glycoproteins located in the DEJ. […] Laminin and fibronectin secretion was monitored by quantifying laminin and fibronectin in cell supernatants of cultured human fibroblasts treated for 3 days with culture medium with or without 1.0% final concentration of the test ingredient(s). Following incubation, laminin and fibronectin contents were measured using immunofluorescent antibodies directed against each protein in an enzyme linked immuno-sorbant assay (ELISA). Measurements were normalized for cellular metabolic activity, as determined by bioconversion of 3-(4,5-dimethylthiazol-2-yl)-5-(3-carboxymethoxyphenyl)-2-(4-sulfophenyl)-2H-tetrazolium (MTS)."}, "[3]": {"system": "TNF-α", "test": "Inhibition of TNF-α production by PMA-treated human epidermal keratinocytes (ELISA)", "from_the_text": "The prototype ligand of the TNF superfamily, TNF-α, is a pleiotropic cytokine that plays a central role in inflammation. Increase in its expression is associated with an up regulation in pro-inflammatory activity. This bioassay was used to analyze the effect of tetradecyl aminobutyroylvalylaminobutyric urea trifluoroacetate, and/or Alteromonas ferment filtrate on the production of TNF-α by human epidermal keratinocytes. The endpoint of this assay was a spectrophotometric measurement that reflects the presence of TNF-α and cellular viability. The assay employed the quantitative sandwich enzyme immunoassay technique whereby a monoclonal antibody specific for TNF-α has been pre-coated onto a microplate. Standards and samples were pipetted into the wells and any TNF-α present was bound by the immobilized antibody. After washing away any unbound substances, an enzyme-linked polyclonal antibody specific for TNF-α was added to the wells. Following a wash to remove any unbound antibody-enzyme reagent, a substrate solution was added to the wells and color develops in proportion to the amount of TNF-α bound in the initial step using a microplate reader for detection at 450 nm. The color development was stopped and the intensity of the color can be measured. […]"}, "[4]": {"system": "hyaluronic acid", "test": "Production of hyaluronic acid in adult human dermal fibroblasts (HDFa), ELISA", "details": "for Hyaluronic Acid Production, Activity compared to control: HDFa cells, 24 hours", "method": "Changes in the production of hyaluronic acid in human dermal fibroblasts due to each of Centella asiatica meristem cell culture, Alpinia galangal leaf extract, tripeptide-1, and TAUT were measured. Hyaluronic acid (HA) is a polysaccharide involved in stabilization of the structure of the matrix and is involved in providing turgor pressure to tissue and cells. As one non-limiting example, HA production in treated and non-treated adult human dermal fibroblasts (HDFa) cells was determined using the Hyaluronan DuoSet ELISA kit from R&D Systems (DY3614). In this assay, for production of samples, subconfluent HDFa cells from Cascade Biologics (C-13-5C) were incubated at 37° C. and 10% CO2 in starvation medium (0.15% fetal bovine serum and 1% Penicillin Streptomycin solution in Dulbecco's Modified Eagle Medium) for 72 hours prior to treatment. The cells were then incubated with fresh starvation medium with either test compound, positive control (phorbol 12-myristate 13-acetate from Sigma-Aldrich (P1585) and platelet derived growth factor from Sigma-Aldrich (P3201)), or no additive for 24 hours. Media was then collected and frozen at −80° C. until use in the ELISA assay.\nBriefly, the ELISA assay employed a quantitative sandwich enzyme immunoassay technique whereby a capture antibody specific for HA can be pre-coated onto a microplate. Standards and media from treated and untreated cells were pipetted into the microplate wells to enable any HA present to be bound by the immobilized antibody. After washing away any unbound substances, an enzyme-linked detection antibody specific for HA was added to the wells. Following a wash to remove any unbound antibody-enzyme reagent, a substrate solution was added to the wells to allow color development in proportion to the amount of HA bound in the initial step. The color development was stopped at a specific time and the intensity of the color at 450 nm was measured using a microplate reader."}}}
{"compound": "Cc1cc(=O)c2c(O)cc(O)cc2o1", "note": "[dihydroxymethyl chromone]", "values": [{"measurement": "Collagen Production, Activity compared to control", "setting": "[1]", "value": "+20%"}, {"measurement": "Fibronectin Secretion, Activity compared to control", "setting": "[2]", "value": "+28%"}]}
{"compound": "tetradecyl aminobutyroylvalylaminobutyric urea trifluoroacetate [TAUT]", "values": [{"measurement": "production of collagen (in words)", "setting": "[1]", "value": "increases"}, {"measurement": "Collagen Production, Activity compared to control", "setting": "[1]", "value": "+18%"}, {"measurement": "production of TNF-α (in words)", "setting": "[3]", "value": "inhibits"}, {"measurement": "TNF-α Production, Activity compared to control", "setting": "[3]; compared to PMA, human keratinocytes, PMA 10 ng/ml, 6 hours", "value": "−100", "unit": "%"}, {"measurement": "production of hyaluronic acid (in words)", "setting": "[4]", "value": "increases"}, {"measurement": "Hyaluronic Acid Production, Activity compared to control", "setting": "[4]", "value": "+64%"}]}
{"compound": "tripeptide-1", "values": [{"measurement": "production of collagen (in words)", "setting": "[1]", "value": "increases"}, {"measurement": "Collagen Production, Activity compared to control", "setting": "[1]", "value": "+20%"}, {"measurement": "production of hyaluronic acid (in words)", "setting": "[4]", "value": "increases"}, {"measurement": "Hyaluronic Acid Production, Activity compared to control", "setting": "[4]", "value": "+93%"}]}
